Reference: PubChem BioAssay AID493003 (Sanford-Burnham Center for Chemical Genomics, 2010)
pIC50: −log10 of the molar value. The source made the active and inactive calls. The rule behind the calls is not given here.

System: S. cerevisiae tim10-1 mutant growth, luminescence
Experiment: tim10-1 yeast growth inhibition potency – luminescence, S. cerevisiae, uHTS hits, dose response (AID 493003);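 note: yeast growth measured after about 22 hours at 25 °C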

SMILES | pIC50 | IC50
C=CCNC(=S)NNc1nc2c(c(=O)[nH]1)C1(CCCC1)Cc1ccccc1-2 | 4.56 | 
CC(C)(C)c1ccc(C(=O)c2cn[nH]c2-c2ccccc2O)cc1 | 4.28 | 
CC1=CC(=O)C=C(C)C1=NOC(=O)/C=C\c1ccccc1 | 4.37 | 
CCCCN1/C(=C/c2ccc3ccccc3[n+]2CC)Sc2ccccc21 | 4.72 | 
CCOC(=O)N1CCN(S(=O)(=O)c2ccc(C(=O)N(CCN(CC)CC)c3nc4ccc(C)cc4s3)cc2)CC1 | 4.22 | 
Cc1oc2c(Cl)c(Cl)c(O)c(CN(C)C)c2c1C(=O)c1ccc(Cl)cc1 | 4.73 | 
COc1ccc(C/C(=N\OC(C)=O)c2ccc(OC)cc2)cc1 | 4.59 | 
COC(C/C=C/C(=O)COCc1ccccc1)OC | 4.43 | 
COc1ccc(C2(O)CC3CCC(C2)N3c2cc(C)nc(-c3ccccc3)n2)cc1 (stereo not drawn) | 4.74 | 
COc1ccc2[nH]c3c(=O)n4c(nc3c2c1)SCC4 | 4.10 | 
CN1C(=O)C(O)(CC(=O)c2cccc(-n3cccc3)c2)c2ccccc21 (stereo not drawn) | 4.40 | 
O=[N+]([O-])c1ccccc1/C=C/C=N/n1c(-c2ccccc2)n[nH]c1=S | 4.13 | 
CCCc1ccc(-c2c(C)sc(N)c2C#N)cc1 | 4.72 | 
N/C(Cc1cccs1)=N\OC(=O)COc1ccc(Cl)cc1Cl | 4.61 | 
Cc1ccc(Nc2nc(Cl)nc(N(C)C#N)n2)cc1 | 4.60 | 
O=C(c1ccc2nc(N3CCOCC3)sc2c1)N1CCC(Cc2ccccc2)CC1 | 4.78 | 
COc1ccc(-c2cn3c(C)c(C(=O)N4CCc5ccccc5C4)sc3n2)cc1 | 4.40 | 
CC(C)(C)c1ccc(-c2n[nH]c(=S)n2Cc2ccccc2)cc1 | 4.48 | 
O=C(CSc1nc2cc(Cl)ccc2s1)c1ccco1 | 4.30 | 
COc1ccc2cc3cc(C(=O)Nc4ccccc4N4CCN(C)CC4)oc3nc2c1 | 4.76 | 
COc1ccc(-c2cc(C(=O)N3CCN(c4ncccn4)CC3)c3ccccc3n2)c(OC)c1 | 4.55 | 

SMILES | pIC50 | IC50
CC(C)NC(=S)N/N=C1\CCCCC1C1CCCCC1 (stereo not drawn) | 4.43 | 
N/C(=N\OC(=O)c1cccc(Cl)c1)c1ccccn1 | 4.57 | 
Cc1ccccc1NC(=O)CSc1nc(N)c2c3c(sc2n1)CSC(C)(C)C3 | 4.44 | 
O=C(NCCC1=CCCCC1)NC12CC3CC(CC(C3)C1)C2 | 4.29 | 
CC(C)(C)c1ccc(C(=O)CC(Sc2ccc(Cl)cc2)C(=O)O)cc1 (stereo not drawn) | 4.56 | 
O=C(c1cccs1)c1c[nH]cc1-c1ccccc1 |  | > 100 µM (inactive)
CCn1c(CSc2nc3ccccc3s2)n[nH]c1=S | 4.31 | 
O=C(c1ccco1)N1CCN(c2ncnc3scc(-c4ccccc4)c23)CC1 | 4.75 | 
Cc1csc(NC(=O)c2nc(-c3ccccc3)n(-c3ccccc3)n2)n1 | 4.50 | 
N/C(=N\OC(=O)CCC1CCCC1)c1ccc([N+](=O)[O-])cc1 | 4.77 | 
CSc1nc(N)nc(-c2cccs2)c1C#N | 4.49 | 
Cc1nn(-c2ccccc2)c2c1C1(C(=O)N(C)c3ccccc31)C(C#N)=C(N)O2 (stereo not drawn) | 4.27 | 
Nc1ccc2oc(-c3cccc(Br)c3)nc2c1 | 4.55 | 
COC(=O)c1cccc(Nc2cc(C)nc(-c3ccccc3O)n2)c1 |  | > 100 µM (inactive)
CC(=O)/C(=N\Nc1ccc(Cl)cc1Cl)Sc1cccc2cccnc12 | 4.38 | 
CCN(CC)c1ncnc2c1ncn2Cc1c(Cl)cccc1Cl | 4.34 | 
Fc1cccc(-c2cc3nc4c(c(NCc5ccco5)n3n2)CCCC4)c1 | 4.47 | 
Cc1nn(Cc2ccc(Cl)cc2)c(C)c1NC(=O)c1ccc([N+](=O)[O-])cc1 | 4.47 | 
O=C(Nc1cc(Sc2ccccn2)cc([N+](=O)[O-])c1)c1cccc(Cl)c1 | 4.46 | 
O=C(/C=C/c1ccccc1)CC(O)(c1ccccc1)C(F)(F)F (stereo not drawn) | 4.62 | 
COc1cccc(-c2nn(C)c3sc(C(=O)N4CCN(c5ccccn5)CC4)cc23)c1 | 4.34 | 

SMILES | pIC50 | IC50
CC(C)(C)C(=O)NCCN1C(=O)S/C(=C\c2ccc([N+](=O)[O-])cc2)C1=O | 4.49 | 
COc1ccccc1C(=O)Nc1ccc(S(=O)(=O)N2CCCCC2)cc1 | 4.60 | 
Cc1ccc(C(=O)c2no[n+]([O-])c2C(=O)c2ccc(C)cc2)cc1 | 4.82 | 
O=C(O)/C=C/C(=O)c1ccc2c(c1)CCc1ccccc1-2 | 4.96 | 
Cc1nonc1C(=O)N/N=C/c1ccc(O)cc1 | 4.52 | 
COCCNC(=S)N1CCN(c2nc(-c3ccccc3)cs2)CC1 |  | > 100 µM (inactive)
O=C(Nc1ncc2c(n1)-c1ccccc1CC2)c1cccc(Cl)c1 | 4.28 | 
O/N=C(\c1ccc(Cl)cc1Cl)c1ncc(C(F)(F)F)cc1Cl | 4.71 | 
COc1cc(C(=O)Nc2ccc(Nc3ccccc3)cc2)cc(OC)c1OC |  | > 100 µM (inactive)
Cc1[nH]n(-c2ccccc2)c(=O)c1C(c1ccccc1[N+](=O)[O-])C(C#N)C#N (stereo not drawn) | 4.74 | 
COc1ccc2cc3cc(C(=O)NCCN4CCc5ccccc5C4)oc3nc2c1 | 6.16 | 
CCOc1ccccc1NC(=O)/C=C/C(N)=O | 4.84 | 
FC(F)C(F)(F)C(F)(F)C(F)(F)c1cc(-c2ccccc2)n[nH]1 | 4.82 | 
Cc1ccc(/C(N)=N/OC(=O)N2CCOCC2)cc1 | 4.61 | 
COc1cccc(N2C(C(C)=O)=NN(c3ccccc3)C2c2ccc(N3CCOCC3)cc2)c1 (stereo not drawn) |  | > 100 µM (inactive)
CCSc1ccc2c(c1)N(CCCN1CCN(C)CC1)c1ccccc1S2 | 4.60 | 
O=[N+]([O-])/C(C(Cl)=C(Cl)Cl)=C(\Sc1ccccc1)N1CCCCC1 | 4.28 | 
CCCN1C(=O)/C(=N\OCC(=O)Nc2ccc(C(C)C)cc2)c2ccccc21 | 4.22 | 
O=C(CCNc1ccc(Cc2ccncc2)cc1)c1cccc([N+](=O)[O-])c1 | 4.31 | 
Cc1ccc(C)c(S(=O)(=O)ON2C(=O)c3ccccc3C2=O)c1 | 4.66 | 
S=C(NN=C1C2CC3CC(C2)CC1C3)Nc1ccccc1 | 4.71 | 

SMILES | pIC50 | IC50
O=C(c1ccc2nc(N3CCCCC3)sc2c1)N1CCN(c2ccccn2)CC1 | 4.34 | 
COc1ccc(Sc2cnn(-c3ccccc3)c(=O)c2Cl)cc1 | 4.45 | 
COc1cc(/C=N/N=C2/C(=O)Nc3ccccc32)cc(OC)c1O | 4.52 | 
CC(C)(C)c1cc(C(=O)N/N=C/c2ccc(F)cc2)n(-c2ccccc2)n1 | 4.44 | 
CCOC(=O)c1ccc(NC(=O)CC2OCCN(CC)C2=O)cc1 (stereo not drawn) | 5.00 | 
O=S(=O)(/N=C(/Sc1ccccc1)c1ccccc1)c1ccccc1 | 4.59 | 
COc1cc(N=c2ssnc2Cl)c(OC)cc1Cl | 4.89 | 
COc1ccc(C(=O)Nc2ccc(S(=O)(=O)N3CCCCC3)cc2)cc1OC | 4.55 | 
CCOC(=O)C1CCN(C2CC(=O)N(c3cccc(Cl)c3)C2=O)CC1 (stereo not drawn) | 4.43 | 
COc1ccc(OC)c(N=c2ssnc2Cl)c1 | 4.68 | 
CC(C)(C)C1CCc2nc(NC(=O)Cc3cn4ccsc4n3)sc2C1 (stereo not drawn) | 4.64 | 
Cc1ccc(/C(N)=N/OC(=O)C(C)c2ccc([N+](=O)[O-])cc2)cc1 (stereo not drawn) | 5.00 | 
C=CCn1c(SCc2c(F)cccc2Cl)nnc1-c1ccco1 | 4.46 | 
COc1ccc(C(=O)Nc2ccc(-n3nncc3C(C)(C)C)cc2)cc1 | 4.79 | 
Cc1cc(C)cc(NC(=O)c2ccc(Cn3nc(C)c(Cl)c3C)o2)c1 | 4.16 | 
CCCOc1ccc(CN(CCC#N)C(=S)NC(=O)c2ccccc2)cc1 | 4.96 | 
COC(=O)c1ccc(NC(=O)CN2CCN(S(=O)(=O)c3ccc(Br)cc3)CC2)cc1 | 4.21 | 
O=S(=O)(NCCNc1ncc(C(F)(F)F)cc1Cl)C(F)(F)F | 4.58 | 
CC1=NN(c2nc(-c3ccc(Cl)cc3)cs2)C(=O)C1 | 4.47 | 
Nc1nc(-c2ccc(Br)cc2)cs1 | 4.77 | 
